Assay results taken from PMC5484485, “In vitro and in vivo effects of kisspeptin antagonists p234, p271, p354, and p356 on GPR54 activation” (PLoS ONE, 2017).
Square brackets hold non-standard residues; d marks the D form. Ends that are not written are not given here.

How the values were obtained:
circulating LH / puberty = conditions: cited from earlier work
Procedure: The development of kisspeptin antagonists contributed to an improved understanding of the role of kisspeptin in the reproductive system. Roseweir et al. developed several KP10 analogues and tested their effect on inositol phosphate (IP) release in Chinese hamster ovarian (CHO) cells stably expressing the human GPR54. […] The kisspeptin antagonists were administered intravenously in a dose of 50 μg/kg/h, and had no effect on either the basal plasma LH concentration during the continuous administration or on the KP10-induced LH response. These findings are in line with a previous study in female dogs. […] Adult male rats received an intrape ...

human GPR54 = human GPR54 (Homo sapiens, UniProt Q969F8); assay: Flow cytometric calcium flux assay, response to peptide alone (agonist / intrinsic activity); format: cell-based; design: host or cells: rat hematopoietic CHEM1 cells expressing endogenous Galpha15; conditions: any tested concentration, 10^-13 to 10^-5 M; n = 3
human GPR54, sequence (Q969F8 whole entry): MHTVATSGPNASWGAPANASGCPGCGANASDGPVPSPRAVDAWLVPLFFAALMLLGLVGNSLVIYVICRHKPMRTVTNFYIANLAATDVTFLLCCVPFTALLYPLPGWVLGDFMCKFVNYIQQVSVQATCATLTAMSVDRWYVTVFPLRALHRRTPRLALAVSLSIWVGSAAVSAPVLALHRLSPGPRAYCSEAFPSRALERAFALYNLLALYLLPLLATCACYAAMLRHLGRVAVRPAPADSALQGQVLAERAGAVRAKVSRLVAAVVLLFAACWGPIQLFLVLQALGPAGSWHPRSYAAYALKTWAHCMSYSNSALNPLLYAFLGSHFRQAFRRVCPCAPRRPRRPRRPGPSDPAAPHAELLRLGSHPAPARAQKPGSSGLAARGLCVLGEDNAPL
Procedure: In vitro analyses of the effects of kisspeptin and kisspeptin antagonists, were performed using HT[…] cells (rat hematopoietic CHEM1 cells expressing endogenous Gα15 and, stably expressing the human GPR54 receptor (Millipore BV, the Netherlands), CHEM1-GPR54. Cells were counted and suspended in HBSS+++ at a concentration of 5*10^6 cells/ml. To load the cells with the fluorescent dye ester they were incubated in HBSS+++ adjusted to a concentration of 2 μM Fluo-3 AM (Molecular Probes, Life Technologies, the Netherlands) for 1h at 37°C under agitation in the dark. After incubation, the cells were washed by adding HBSS+++ to a volume of 10 ml followed by centrifugation (5 min, 150 x g) to remove excess of Fluo-3AM. […] Thereafter the tube was removed briefly and 25 μl peptide (see below) was added, after which aspiration and analysis continued. For statistical analyses fluorescent data recorded during the time interval 30-60 seconds after initiation of measurement were used. […] Experiments were performed 3 times. Representative flow cytometry results are depicted in Fig 1. […] We then assessed whether these antagonists could compete with KP10 for its receptor. […] For this purpose 25 μl quantities of the antagonists were added to 200 μl of Fluo-3 AM labelled cells (10^6 cells/ml) and incubated for 15 min. […] Peptides p354 and p356 were tested three times with both human and canine KP10; while peptides p234 and p271 were tested three times with human KP10 and once with canine KP10. […] A multivariate general linear model was set up to analyze differences in calcium response between the different concentrations, with Dunnett's test as a post hoc procedure for the antagonists and Bonferroni's test for the agonists.

CHEM1-GPR54 cells = biological target: T1, CHEM1-GPR54 cells (Homo sapiens, UniProt Q969F8); assay: Preliminary calcium flux assay with adherent CHEM1-GPR54 cells (unpublished); format: cell-based; conditions: too few repeats for statistics
T1 construct: host or cells: rat hematopoietic CHEM1 cells expressing endogenous Galpha15
T1 sequence (Q969F8 whole entry): as above

plasma LH concentration [1] = assay: Plasma LH in anestrous Beagle bitches during antagonist infusion and after cKP10 bolus; format: in vivo, dog; conditions: n = 6
Description: Thirteen adult anestrous Beagle bitches were used for this study. Six dogs with a median age of 89 months (range 43–122 months) were used as control group, receiving cKP10 without an antagonist. Eight dogs with a median age of 52 months (range 31–116 months) were used for the antagonist experiments. One dog was first used in the control group and 12 months later for the antagonist experiments. Of the eight dogs used for the antagonist experiments, four received p271, p354, and p356. In two of the eight dogs both p354 and p356 were tested, while in the remaining two dogs only p271 was tested, in order to test every antagonist in 6 dogs. The time between testing of different kisspeptin antagonists was at least 5 days (range 5–15 days) to ensure that there were no peptide residues. Kisspeptin antagonist p234 per se was not tested in vivo because p271 is in fact p234 with a penetratin tag to enhance passage across the blood-brain barrier, as has been described for use with peripheral administration.
Kisspeptin antagonists (50 μg/kg/h) were administered continuously for three hours via a catheter in the cephalic vein. Two hours after the start of the infusion, a single bolus of cKP10 (0.5 μg/kg) was administered intravenously. Blood samples were collected from the jugular vein by venipuncture at -40 min and 0 min before the antagonist infusion, and then every 30 min for two hours. After the administration of cKP10, blood samples were collected at 10, 20, 40, and 60 min (i.e., 130, 140, 160, and 180 min after the start of the antagonist infusion).
As a control, KP stimulation tests (without the administration of a kisspeptin antagonist) were performed in six dogs. Blood samples were collected from the jugular vein by venipuncture at -40 min and 0 min before, and then at 10, 20, 40, and 60 min after administration of cKP10 (0.5 μg/kg). Plasma LH concentrations were measured in all blood samples.
Plasma LH concentrations were measured with a heterologous radioimmunoassay validated for the dog, as described previously. The intra- and interassay CVs for values above 0.5 μg/l were 2.3 and 10.5%, respectively, and the limit of quantitation was 0.3 μg/l.
In both groups of dogs (experimental and control), the basal plasma LH concentration was calculated for each dog as the mean of the values at –40 and 0 min before cKP10 or antagonist administration. All LH values that exceeded the mean of all basal samples plus 3 SD were attributed to pulsatile secretion and were treated as outliers and excluded from statistical analysis. Log transformation of plasma LH concentrations was used because data were not normally distributed. A linear mixed model was used to analyze differences in plasma LH concentrations before and after KP10, with or without a kisspeptin antagonist (group effects: p271, p354, p356, and controls), with Bonferroni correction. P<0.05 was considered significant.

plasma LH concentration [2] = assay: Other studies with p271 up to 600 μg/kg/h in castrated male dogs and anestrous bitches (unpublished); format: in vivo, dog; conditions: doses of up to 600 μg/kg/h, unpublished data
Procedure: These doses also had no effect on plasma LH concentration in the castrated male dogs or on the KP10-induced LH response in the female dogs (unpublished data). It is therefore unlikely that the lack of antagonistic effects is related to the dose of 50 μg/kg/h used in the present study.

[3] = adult male rats, 5 nmol ip every hour for three hours
[4] = antagonist 50 μg/kg/h iv, cKP10 0.5 μg/kg iv

## RRMKWKKY[dA]NWNGFG[dW]RF-NH2 [p271, p234 with a penetratin tag]
Circulating LH / puberty; [3]
  KP10-induced LH response, KP10 intracerebroventricular: blunted
  KP10-induced LH response, KP10 intraperitoneal: absent
Circulating LH / puberty; male rats, repeated peripheral administration
  effect on post-castration rise in circulating LH: could prevent the post-castration rise in circulating LH
Circulating LH / puberty; mice and rats, repeated peripheral administration
  effect on KP10-induced rise in plasma LH: blunted the KP10-induced rise in plasma LH concentration
Human GPR54
  intrinsic calcium response: no significant intrinsic calcium response
CHEM1-GPR54 cells
  inhibition of KP10-induced calcium response, adherent cells: could not be inhibited
Plasma LH concentration [1]; 30 min of antagonist infusion 50 μg/kg/h iv
  Median (and range) plasma LH, t = 30: 3.9 (2.2–5.4) μg/L
Plasma LH concentration [1]; 60 min of antagonist infusion 50 μg/kg/h iv
  Median (and range) plasma LH, t = 60: 5.2 (2.5–10.0) μg/L
Plasma LH concentration [1]; 90 min of antagonist infusion 50 μg/kg/h iv
  Median (and range) plasma LH, t = 90: 4.5 (2.8–6.3) μg/L
Plasma LH concentration [1]; 120 min of antagonist infusion 50 μg/kg/h iv, before cKP10
  Median (and range) plasma LH, t = 120: 6.0 (3.2–7.5) μg/L
Plasma LH concentration [1]; [4]
  median maximum increment in plasma LH concentration after cKP10 during antagonist administration: 12.2 µg/L
  range of maximum increment in plasma LH concentration after cKP10 during antagonist administration: 4.7 to 18.2 µg/L
Plasma LH concentration [1]; antagonist infusion 50 μg/kg/h iv, 10 min after cKP10 0.5 μg/kg iv
  Median (and range) plasma LH, t = 130 / t = 10*: 16.2 (9.3–24.1) μg/L
Plasma LH concentration [1]; antagonist infusion 50 μg/kg/h iv, 20 min after cKP10 0.5 μg/kg iv
  Median (and range) plasma LH, t = 140 / t = 20*: 10.0 (5.7–12.6) μg/L
Plasma LH concentration [1]; antagonist infusion 50 μg/kg/h iv, 40 min after cKP10 0.5 μg/kg iv
  Median (and range) plasma LH, t = 160 / t = 40*: 6.4 (4.8–8.8) μg/L
Plasma LH concentration [1]; antagonist infusion 50 μg/kg/h iv, 60 min after cKP10 0.5 μg/kg iv
  Median (and range) plasma LH, t = 180 / t = 60*: 4.8 (3.5–7.3) μg/L
Plasma LH concentration [1]; before antagonist infusion (mean of -40 and 0 min per dog)
  Median (and range) plasma LH, Basal: 4.0 (2.9–5.9) μg/L
Plasma LH concentration [1]; continuous iv 50 μg/kg/h, anestrous bitches
  effect on basal plasma LH concentration: did not cause significant alterations
Plasma LH concentration [2]; anestrous bitches
  effect on KP10-induced LH response in female dogs: had no effect
Plasma LH concentration [2]
  effect on plasma LH concentration in castrated male dogs: had no effect
